Laboratory results taken from patent US11667784B2, “Copolymers including cinchona alkaloid components and one or more acrylamide or acrylate containing components, complexes containing the same, and methods of using the” (REGENTS OF THE UNIVERSITY OF MINNESOTA, priority 2017, dated 2023).

What was measured:
HeLa cells = assay type: cell-based, human
Description: Transfection with the acrylate copolymer poly(HEA-co-acrylate), however, provided more promising results. […] Transfection studies with the HEA copolymer will continue at higher N/P ratios in hope of achieving transfection efficiency similar to that of PEI while maintaining limited toxicity.

plasmid DNA = assay: DNA binding by gel electrophoresis (gel shift assay); conditions: plasmid DNA 4.7 kb, equivalent molar ratios to HEA-quinine copolymer
Description: DNA Binding Studies by Gel Electrophoresis. After the 1 hour incubation period, the polyplex solutions of all N/P ratios (10 μL) were each mixed with a 30% glycerol solution in water (2 μL). The solutions were loaded into 0.6% agarose gel containing ethidium bromide (6 μL/100 mL TAE buffer) and run at 60 V for 60 minutes. The gel was visualized under UV transilluminator (λ=366 nm).
The first step in this process is to mix the polymer and pDNA together to form the polyplex. […] Once combined, the solution is left to incubate at room temperature for 1 hour. Polyplexes are formed with varying concentrations of polymer to DNA which are expressed by their N/P ratio. The N/P ratio expresses the molar ratio of cationic amine groups on the polymer (N) over the number of anionic phosphate groups of the DNA backbone (P). […]
Upon a slow addition of an aqueous polymer solution to an aqueous DNA solution (0.02 μg/μL) at a 1:1 v/v ratio, the polymer and DNA self-assemble to form polyplexes. The target concentration of the polymer in the polyplex solution was determined by the target N/P ratio which is the molar ratio of cationic amine groups on the polymer (N) to anionic phosphate groups of the DNA backbone (P). […]

[1] = cited from earlier work

## poly(HEA-co-quinine) [HEA copolymer]
HeLa cells
  toxicity (qualitative inspection): much less toxic

## C=C[C@H]1C[N@@]2CC[C@H]1C[C@H]2[C@H](O)c1ccnc2ccc(OC)cc12 [quinine]
Plasmid DNA
  ability to bind DNA in gel shift assay: inability
[1]; 4-aminoquinoline nitrogen of chloroquine vs quinoline nitrogen of quinine
  pKa of quinoline nitrogen: 5.2

## C=C(C)C(=O)NCCN [AEMA, N-(2-aminoethyl) methacrylamide]
[1]; basic tertiary amine of chloroquine and quinine, amine of AEMA
  pKa of basic amine: 9.3
